Patent US9193736B2, “PDE 10a inhibitors for the treatment of type II diabetes” (Janssen Pharmaceutica, NV, priority 2013, dated 2015)

Experiments:
[1] = target: Human recombinant PDE10A2 (Homo sapiens (Human), UniProt Q9Y233); assay: In vitro hPDE10a: human recombinant PDE10A2 scintillation proximity assay, IC50; assay type: biochemical; conditions: human recombinant PDE10A2, SPA, 60 nM cAMP; read-out: hPDE10a2 IC50
Summary of the method: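 Purified recombinant human PDE10A2 (Ni-sepharose) was assayed by SPA, counting [3H]-AMP product captured on yttrium silicate beads added in zinc sulphate stop solution. Inhibition was expressed as % of activity without compound, with a no-enzyme low control. Repeat data points were aggregated.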

[2] = rat, in vivo
Method: PDE10a-Brain Permeability Assay
(§1) A. PDE10a-Perfused Brain Permeability Study Protocol
(§2) Drug administration by oral gavage, subcutaneous injection or intravenous was carried out using male Sprague Dawley rats under IACUC protocol (SH-MET3010). Male Sprague Dawley rats (Charles River) ˜300-350 g were maintained on a 4% standard rodent diet (Test Diet 5001). They are allowed ad libitum access to water and food. Room temperature was maintained at 64° F. and humidity at 30-70%.
(§3) Three animals per compound were provided a dose of 2 mg/mL in 20% HpbCD/Tris pH 8 by tail i.v. or 30 mpk p.o. or s.c. in 20% HpbCD/Tris pH 8, with PDE10a antagonists. A first blood sample was collected at 30 min via retro-orbital sinus (anesthetic by 70% CO2/30% O2) into heparinzed plasma separator tubes. The blood was centrifuged and 100 μL plasma was placed into a 96 well plate and saved on dry ice.
(§4) After the 120 min, the final blood sample was collected via retro-orbital sinus under anesthesia by IP 0.5 cc injection of a 4/1 mixture of Ketaset: AnaSed [(prepared 10 mL Ketaset (100 mg/mL Ketamine)+2.5 mL AnaSed (20 mg/mL Xylazine)]. The rats were then perfused with 400 mL heparinized saline (10,000 units/L) through the left ventricle of the heart; the brains were then removed (not including the medulla), weighed and homogenized in PBS (4 mL/g tissue). The samples were stored at −80° C. and submitted for chemical analysis of blood and brain concentrations. Endpoints of sample analysis consists of the plasma concentrations at 30 and 120 min, plus brain concentrations at 120 min.

[3] = target: Rat recombinant PDE10a (rPDE10a) (Rattus norvegicus (Rat), UniProt Q9QYJ6); assay: In vitro assay PDE10a: rat recombinant PDE10a SPA with 3H-cAMP substrate, IC50; assay type: biochemical; conditions: 60 nM cAMP, read-out: rPDE10a2 IC50
Summary of the method: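 Enzyme expressed in Sf9 cells via baculovirus and Ni-sepharose purified; reaction with 3H-cAMP ran 60 min at rt, stopped with PDE SPA beads. Compounds diluted in DMSO at 100-fold final concentration; blanks omitted enzyme.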

[4] = PDE10a perfused brain permeability study: plasma concentrations at 30 and 120 min, brain concentration at 120 min, brain/plasma ratio; conditions: male, Sprague-Dawley, rat
Method: PDE10a-Brain Permeability Assay
as §1, §2, §3, §4

Human recombinant PDE10A2, sequence (Q9Y233 267-1055): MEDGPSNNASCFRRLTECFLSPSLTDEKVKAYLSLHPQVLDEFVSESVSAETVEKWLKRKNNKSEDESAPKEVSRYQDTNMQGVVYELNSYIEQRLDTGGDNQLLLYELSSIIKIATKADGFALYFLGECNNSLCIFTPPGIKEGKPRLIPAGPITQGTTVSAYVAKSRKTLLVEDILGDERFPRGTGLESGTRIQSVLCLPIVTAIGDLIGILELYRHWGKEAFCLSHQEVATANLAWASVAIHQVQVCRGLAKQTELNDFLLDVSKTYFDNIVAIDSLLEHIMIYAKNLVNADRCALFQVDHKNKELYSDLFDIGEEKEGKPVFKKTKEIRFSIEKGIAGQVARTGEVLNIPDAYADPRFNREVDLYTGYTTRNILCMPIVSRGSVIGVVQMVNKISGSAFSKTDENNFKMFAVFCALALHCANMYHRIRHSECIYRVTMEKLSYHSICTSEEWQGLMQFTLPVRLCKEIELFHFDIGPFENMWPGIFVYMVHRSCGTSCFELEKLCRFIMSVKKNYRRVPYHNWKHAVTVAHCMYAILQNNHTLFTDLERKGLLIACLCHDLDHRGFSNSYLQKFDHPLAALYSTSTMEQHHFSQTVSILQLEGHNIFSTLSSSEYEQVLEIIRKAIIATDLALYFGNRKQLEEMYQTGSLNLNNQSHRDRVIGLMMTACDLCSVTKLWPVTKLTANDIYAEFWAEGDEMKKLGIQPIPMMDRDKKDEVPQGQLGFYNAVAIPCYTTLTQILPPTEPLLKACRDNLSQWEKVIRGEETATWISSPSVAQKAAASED
Rat recombinant PDE10a (rPDE10a), sequence (Q9QYJ6 whole entry): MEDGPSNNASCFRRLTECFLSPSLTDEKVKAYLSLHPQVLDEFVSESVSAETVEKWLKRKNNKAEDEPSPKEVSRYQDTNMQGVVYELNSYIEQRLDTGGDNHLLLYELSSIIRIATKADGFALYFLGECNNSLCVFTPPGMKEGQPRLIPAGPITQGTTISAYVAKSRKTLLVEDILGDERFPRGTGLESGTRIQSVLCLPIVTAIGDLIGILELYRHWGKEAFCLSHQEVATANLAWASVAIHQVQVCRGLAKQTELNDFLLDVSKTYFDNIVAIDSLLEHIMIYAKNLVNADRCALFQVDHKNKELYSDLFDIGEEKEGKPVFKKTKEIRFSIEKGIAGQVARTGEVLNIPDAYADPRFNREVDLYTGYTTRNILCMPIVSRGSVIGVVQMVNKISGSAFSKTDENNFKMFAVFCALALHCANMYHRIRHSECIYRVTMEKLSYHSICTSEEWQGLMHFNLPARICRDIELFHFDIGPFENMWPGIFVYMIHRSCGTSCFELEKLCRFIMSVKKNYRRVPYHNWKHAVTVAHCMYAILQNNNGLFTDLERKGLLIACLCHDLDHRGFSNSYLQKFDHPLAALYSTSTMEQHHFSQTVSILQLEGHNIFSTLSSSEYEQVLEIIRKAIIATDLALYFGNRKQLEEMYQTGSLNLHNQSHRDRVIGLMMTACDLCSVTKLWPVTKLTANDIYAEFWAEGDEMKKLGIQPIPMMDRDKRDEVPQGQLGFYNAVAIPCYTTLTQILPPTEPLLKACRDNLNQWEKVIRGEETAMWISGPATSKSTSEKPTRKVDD

Compound	IC50 [1] [nM]	Brain conc 2 h [2] [ng/g]	Plasma conc 2 h [2] [ng/mL]	Ratio Br/Pl Mean 2 h [2]	IC50 [3] [nM]	concentration at 2 h ([4]; brain) [ng/g]	Kp at 2 h ([4]; brain/plasma)	concentration at 2 h ([4]; plasma) [ng/mL]
O=C(O)CCc1ccc(-c2c([C@H]3C[C@H](c4ccc5ccccc5n4)C3)nc3c(N4CCOCC4)ccnn23)cc1 [compound 169, 3-(4-(8-Morpholino-2-((1r,3r)-3-(quinolin-2-yl)cyclobutyl)imidazo[1,2-b]pyridazin-3-yl)phenyl)propanoic acid]	2	0	106	0				
CS(=O)(=O)NC(=O)c1ccc(-c2c(CCc3ccc4ccccc4n3)nc3c(N4CCOCC4)ccnn23)cc1 [compound 43, N-(Methylsulfonyl)-4-(8-morpholino-2-(2-(quinolin-2-yl)ethyl)imidazo[1,2-b]pyridazin-3-yl)benzamide]	2				1	0	0	1.8
